Data as given in PubChem BioAssay (NCI).
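Each compound was tested at five concentrations against cells in 96-well plates for 48 hours. GI50 is the concentration that inhibits growth by half. TGI marks complete inhibition of growth.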

Legend:
Assay in all cases: inhibition of tumour cell growth, NCI panel, 48 h
[1] = test system: MDA-MB-231 breast
[2] = test system: MDA-MB-435
[3] = test system: LOX IMVI melanoma
[4] = test system: M14 melanoma
[5] = test system: CAKI-1 renal
[6] = test system: SNB-75 CNS
[7] = test system: K-562 leukemia
[8] = test system: UACC-62 melanoma
[9] = test system: HOP-92 NSCLC
[10] = test system: PC-3 prostate
[11] = test system: ACHN renal
[12] = test system: SK-OV-3 ovarian
[13] = test system: TK-10 renal
[14] = test system: SF-539 CNS
[15] = test system: MCF7 breast
[16] = test system: BT-549 breast
[17] = test system: U251 CNS
[18] = test system: SK-MEL-2 melanoma
[19] = test system: HT29 colon
[20] = test system: COLO 205 colon
[21] = test system: RXF 393 renal
[22] = test system: A498 renal
[23] = test system: IGROV1 ovarian
[24] = test system: HCT-116 colon
[25] = test system: HOP-62 NSCLC
[26] = test system: NCI-H460 lung
[27] = test system: T-47D breast
[28] = test system: UACC-257 melanoma
[29] = test system: HCT-15 colon
[30] = test system: A549 NSCLC
[31] = test system: HCC-2998 colon
[32] = test system: DU-145 prostate
[33] = test system: SF-295 CNS
[34] = test system: SF-268 CNS
[35] = test system: MALME-3M melanoma
[36] = test system: HL-60(TB) leukemia
[37] = test system: KM12 colon
[38] = test system: SK-MEL-5 melanoma
[39] = test system: CCRF-CEM leukemia
[40] = test system: MOLT-4 leukemia
[41] = test system: RPMI-8226 leukemia
[42] = test system: SNB-19 CNS
[43] = test system: EKVX NSCLC
[44] = test system: OVCAR-5 ovarian
[45] = test system: NCI-H522 lung
[46] = test system: 786-0 renal
[47] = test system: HS 578T breast
[48] = test system: SR leukemia

Nc1nc(-c2cccc([N+](=O)[O-])c2)c(N=Nc2ccccc2[N+](=O)[O-])s1
GI50 [1]: 1.46 µM | TGI [1]: 3.26 µM | GI50 [2]: 0.865 µM | TGI [2]: > 100 µM | GI50 [3]: 1.83 µM | TGI [3]: 6 µM | GI50 [4]: 4.84 µM | TGI [4]: 61.3 µM | GI50 [5]: 1.43 µM | TGI [5]: 2.98 µM | GI50 [6]: 1.44 µM | TGI [6]: 3.61 µM | GI50 [7]: 5.57 µM | TGI [7]: > 100 µM | GI50 [8]: 2.11 µM | TGI [8]: > 100 µM | GI50 [9]: 0.285 µM | TGI [9]: 3.63 µM | GI50 [10]: 3.43 µM | TGI [10]: > 100 µM | GI50 [11]: 1.27 µM | TGI [11]: 2.75 µM | GI50 [12]: 2.13 µM | TGI [12]: 5.2 µM | GI50 [13]: 2.91 µM | TGI [13]: 5.95 µM | GI50 [14]: 1.47 µM | TGI [14]: 2.89 µM | GI50 [15]: 18.8 µM | TGI [15]: > 100 µM | GI50 [16]: 4.66 µM | TGI [16]: 32.7 µM | GI50 [17]: 1.69 µM | TGI [17]: 3.29 µM | GI50 [18]: 14.8 µM | TGI [18]: 38.7 µM | GI50 [19]: 59 µM | TGI [19]: > 100 µM | GI50 [20]: 42.8 µM | TGI [20]: > 100 µM | GI50 [21]: 1.64 µM | TGI [21]: 3.2 µM | GI50 [22]: 7.62 µM | TGI [22]: 30.5 µM | GI50 [23]: 2.32 µM | TGI [23]: 5.84 µM | GI50 [24]: 1.51 µM | TGI [24]: 5.73 µM | GI50 [25]: 2.04 µM | TGI [25]: 6.33 µM | GI50 [26]: 2.25 µM | TGI [26]: > 100 µM | GI50 [27]: 4.04 µM | TGI [27]: > 100 µM | GI50 [28]: 63.4 µM | TGI [28]: > 100 µM | GI50 [29]: 2.35 µM | TGI [29]: > 100 µM | GI50 [30]: 20.7 µM | TGI [30]: > 100 µM | GI50 [31]: 53.5 µM | TGI [31]: > 100 µM | GI50 [32]: 4.79 µM | TGI [32]: > 100 µM | GI50 [33]: 2.8 µM | TGI [33]: 14.1 µM | GI50 [34]: 3.62 µM | TGI [34]: > 100 µM | GI50 [35]: 2.9 µM | TGI [35]: 8.6 µM | GI50 [36]: 48.7 µM | TGI [36]: > 100 µM | GI50 [37]: 5.39 µM | TGI [37]: > 100 µM | GI50 [38]: 3.41 µM | TGI [38]: 31.1 µM | GI50 [39]: 3.42 µM | TGI [39]: > 100 µM | GI50 [40]: 8.73 µM | TGI [40]: > 100 µM | GI50 [41]: 4.18 µM | TGI [41]: > 100 µM | GI50 [42]: 3.01 µM | TGI [42]: 14.4 µM | GI50 [43]: 6.05 µM | TGI [43]: > 100 µM | GI50 [44]: 8.34 µM | TGI [44]: > 100 µM | GI50 [45]: 1.94 µM | TGI [45]: 14.4 µM | GI50 [46]: 1.54 µM | TGI [46]: 3.01 µM | GI50 [47]: 2.55 µM | TGI [47]: 9.04 µM | GI50 [48]: 22.7 µM | TGI [48]: > 100 µM
